According to publication PMC5696599, “Confirming a Role for α9nAChRs and SK Potassium Channels in Type II Hair Cells of the Turtle Posterior Crista” (Frontiers in Cellular Neuroscience, 2017):

Target: T1, α9*nAChR (alpha9-containing nicotinic ACh receptor) (Trachemys scripta, UniProt Q3L0X1)
T1 construct: gene CHRNA9; native receptor in type II hair cells, intact split-epithelial posterior crista; read-out through coupled SK potassium current
Test: whole-cell patch clamp of type II hair cells, peak ACh-sensitive outward current, Hill fit
Assay type: cell-based
Conditions: agonist; coupled SK current read-out at −17 mV; intact epithelium with acetylcholinesterase and diffusion barriers; pH 7.6; 21–25°C

T1 sequence (Q3L0X1 28-490): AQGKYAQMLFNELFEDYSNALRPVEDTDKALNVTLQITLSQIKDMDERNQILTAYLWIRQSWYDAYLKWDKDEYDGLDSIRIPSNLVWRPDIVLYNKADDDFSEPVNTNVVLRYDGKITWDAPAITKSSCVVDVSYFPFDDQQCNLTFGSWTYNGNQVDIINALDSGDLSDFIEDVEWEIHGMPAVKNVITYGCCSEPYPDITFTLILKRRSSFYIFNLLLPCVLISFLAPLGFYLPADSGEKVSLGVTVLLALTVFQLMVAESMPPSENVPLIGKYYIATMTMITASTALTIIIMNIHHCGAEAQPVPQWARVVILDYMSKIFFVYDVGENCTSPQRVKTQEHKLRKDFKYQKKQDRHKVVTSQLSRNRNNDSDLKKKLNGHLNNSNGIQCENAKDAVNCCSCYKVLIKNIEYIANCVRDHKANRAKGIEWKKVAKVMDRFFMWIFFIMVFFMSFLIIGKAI
T1 sequence (UPI001552A461 25-505 partner): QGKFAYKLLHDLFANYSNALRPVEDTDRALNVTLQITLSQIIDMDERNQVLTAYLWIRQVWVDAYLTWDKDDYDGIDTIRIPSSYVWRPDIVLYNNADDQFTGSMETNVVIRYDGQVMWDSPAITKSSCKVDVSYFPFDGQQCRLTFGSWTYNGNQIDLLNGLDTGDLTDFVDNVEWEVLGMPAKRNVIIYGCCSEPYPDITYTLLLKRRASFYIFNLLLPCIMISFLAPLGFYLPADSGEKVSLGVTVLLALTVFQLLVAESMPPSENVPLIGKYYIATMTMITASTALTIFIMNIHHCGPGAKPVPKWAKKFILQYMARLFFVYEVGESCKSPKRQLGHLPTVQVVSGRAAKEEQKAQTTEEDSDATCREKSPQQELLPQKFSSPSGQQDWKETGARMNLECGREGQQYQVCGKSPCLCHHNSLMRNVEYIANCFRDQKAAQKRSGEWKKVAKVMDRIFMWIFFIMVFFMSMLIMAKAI

CC(=O)OCC[N+](C)(C)C [acetylcholine]
EC50: 76 µM
